{"source": "patent US8486919B2", "about": "“4-alkylresorcinol derivative and external preparation for skin containing the same” (Shiseido Company, Ltd., priority 2010, dated 2013)", "key": {"Mouse B16 melanoma cells [1]": {"system": "Mouse B16 melanoma cells", "test": "Melanin production inhibition test", "format": "cell-based", "conditions": "3 days, ratio to solvent-only group", "protocol": "(§1) The melanin production inhibitory effect and the cytotoxicity was studied according to the following method.\n(§2) (1) Inoculation of Cells and Addition of Test Substances\n(§3) Mouse B16 melanoma cells were inoculated in a six well plate at 100,000 cells/well. The next day, test substance solutions (solvent: dimethylsulfoxide) were added thereto and then subjected to the melanin production inhibition test and cytotoxicity test.\n(3) Melanin Production Inhibition Test\nThree days after the addition of the test substance solution, the medium was removed by aspiration. The cells were washed with a buffer (50 mM phosphate buffer, pH6.8), and then lysed by addition of 1M NaOH to measure an absorbance at 475 nm. Using the value thus measured as a relative value of the melanin amount, a ratio of the melanin amount (%) of the test substance-added group to the test substance-absent group (group in which only the solvent was added) was calculated. The lower the ratio of the melanin amount, the higher the melanin production-inhibitory effect."}, "Mouse B16 melanoma cells [2]": {"system": "Mouse B16 melanoma cells", "test": "Cell proliferation test (cytotoxicity test, Alamar Blue)", "format": "cell-based", "conditions": "3 days, ratio to solvent-only group", "protocol": "as §1, §2, §3\n(2) Cell Proliferation Test\nThree days after the addition of the test substance solution, the medium was removed by aspiration. Then 1 mL of EMEM medium containing 10% Alamar Blue solution was added, and a reaction was allowed to proceed at 37° C. After 30 minutes, 100 μL of the reaction mixture was transferred to a 96 well plate and fluorescence was measured at an excitation wavelength of 544 nm and a measurement wavelength of 590 nm. Using the value thus measured as a relative value of cell count, a ratio of the cell count (% cell count) of the test substance-added group to the test substance-absent group (group in which only the solvent was added) was calculated. The higher the % cell count, the lower the cytotoxicity."}, "[3]": {"conditions": "final concentration of test compound 2.2 μM"}, "[4]": {"conditions": "final concentration of test compound 22 μM"}, "[5]": {"conditions": "final concentration of test compound 220 μM"}, "[6]": {"conditions": "final concentration of test compound 2.0 μM"}, "[7]": {"conditions": "final concentration of test compound 6.6 μM"}, "[8]": {"conditions": "final concentration of test compound 66 μM"}, "[9]": {"conditions": "final concentration of test compound 1.6 μM"}, "[10]": {"conditions": "final concentration of test compound 16 μM"}, "[11]": {"conditions": "final concentration of test compound 52 μM"}, "[12]": {"conditions": "final concentration of test compound 1.0 μM"}, "[13]": {"conditions": "final concentration of test compound 10 μM"}, "[14]": {"conditions": "final concentration of test compound 33 μM"}, "[15]": {"conditions": "final concentration of test compound 9.6 μM"}, "[16]": {"conditions": "final concentration of test compound 32 μM"}, "[17]": {"conditions": "final concentration of test compound 0.9 μM"}, "[18]": {"conditions": "final concentration of test compound 8.5 μM"}, "[19]": {"conditions": "final concentration of test compound 28 μM"}}}
{"compound": "CCc1ccc(O)cc1O", "note": "[Comparative Compound 1, 4-ethylresorcinol]", "values": [{"measurement": "Melanin Amount Ratio (%)", "setting": "Mouse B16 melanoma cells [1]; [3]", "result": 69, "unit": "%"}, {"measurement": "Melanin Amount Ratio (%)", "setting": "Mouse B16 melanoma cells [1]; [4]", "result": 24, "unit": "%"}, {"measurement": "Melanin Amount Ratio (%)", "setting": "Mouse B16 melanoma cells [1]; [5]", "result": 16, "unit": "%"}, {"measurement": "Cell Count (%)", "setting": "Mouse B16 melanoma cells [2]; [3]", "result": 101, "unit": "%"}, {"measurement": "Cell Count (%)", "setting": "Mouse B16 melanoma cells [2]; [4]", "result": 102, "unit": "%"}, {"measurement": "Cell Count (%)", "setting": "Mouse B16 melanoma cells [2]; [5]", "result": 93, "unit": "%"}]}
{"compound": "CC(C)c1ccc(O)cc1O", "note": "[Comparative Compound 2, 4-isopropylresorcinol]", "values": [{"measurement": "Melanin Amount Ratio (%)", "setting": "Mouse B16 melanoma cells [1]; [6]", "result": 32, "unit": "%"}, {"measurement": "Melanin Amount Ratio (%)", "setting": "Mouse B16 melanoma cells [1]; [7]", "result": 17, "unit": "%"}, {"measurement": "Melanin Amount Ratio (%)", "setting": "Mouse B16 melanoma cells [1]; [8]", "result": 12, "unit": "%"}, {"measurement": "Cell Count (%)", "setting": "Mouse B16 melanoma cells [2]; [6]", "result": 99, "unit": "%"}, {"measurement": "Cell Count (%)", "setting": "Mouse B16 melanoma cells [2]; [7]", "result": 97, "unit": "%"}, {"measurement": "Cell Count (%)", "setting": "Mouse B16 melanoma cells [2]; [8]", "result": 98, "unit": "%"}]}
{"compound": "Oc1ccc(C2CCCCC2)c(O)c1", "note": "[Comparative Compound 3, 4-cyclohexylresorcinol]", "values": [{"measurement": "Melanin Amount Ratio (%)", "setting": "Mouse B16 melanoma cells [1]; [9]", "result": 43, "unit": "%"}, {"measurement": "Melanin Amount Ratio (%)", "setting": "Mouse B16 melanoma cells [1]; [10]", "result": 22, "unit": "%"}, {"measurement": "Melanin Amount Ratio (%)", "setting": "Mouse B16 melanoma cells [1]; [11]", "result": 17, "unit": "%"}, {"measurement": "Cell Count (%)", "setting": "Mouse B16 melanoma cells [2]; [9]", "result": 99, "unit": "%"}, {"measurement": "Cell Count (%)", "setting": "Mouse B16 melanoma cells [2]; [10]", "result": 98, "unit": "%"}, {"measurement": "Cell Count (%)", "setting": "Mouse B16 melanoma cells [2]; [11]", "result": 76, "unit": "%"}]}
{"compound": "CCc1ccc(OP(=O)(O)O)cc1OP(=O)(O)O", "note": "[Compound 1, 1,3-bisphosphonooxy-4-ethylbenzene]", "values": [{"measurement": "Melanin Amount Ratio (%)", "setting": "Mouse B16 melanoma cells [1]; [12]", "result": 62, "unit": "%"}, {"measurement": "Melanin Amount Ratio (%)", "setting": "Mouse B16 melanoma cells [1]; [13]", "result": 25, "unit": "%"}, {"measurement": "Melanin Amount Ratio (%)", "setting": "Mouse B16 melanoma cells [1]; [14]", "result": 16, "unit": "%"}, {"measurement": "Cell Count (%)", "setting": "Mouse B16 melanoma cells [2]; [12]", "result": 101, "unit": "%"}, {"measurement": "Cell Count (%)", "setting": "Mouse B16 melanoma cells [2]; [13]", "result": 108, "unit": "%"}, {"measurement": "Cell Count (%)", "setting": "Mouse B16 melanoma cells [2]; [14]", "result": 113, "unit": "%"}]}
{"compound": "CC(C)c1ccc(OP(=O)(O)O)cc1OP(=O)(O)O", "note": "[Compound 2, 1,3-bisphosphonooxy-4-isopropylbenzene]", "values": [{"measurement": "Melanin Amount Ratio (%)", "setting": "Mouse B16 melanoma cells [1]; [12]", "result": 47, "unit": "%"}, {"measurement": "Melanin Amount Ratio (%)", "setting": "Mouse B16 melanoma cells [1]; [15]", "result": 16, "unit": "%"}, {"measurement": "Melanin Amount Ratio (%)", "setting": "Mouse B16 melanoma cells [1]; [16]", "result": 13, "unit": "%"}, {"measurement": "Cell Count (%)", "setting": "Mouse B16 melanoma cells [2]; [12]", "result": 99, "unit": "%"}, {"measurement": "Cell Count (%)", "setting": "Mouse B16 melanoma cells [2]; [15]", "result": 95, "unit": "%"}, {"measurement": "Cell Count (%)", "setting": "Mouse B16 melanoma cells [2]; [16]", "result": 103, "unit": "%"}]}
{"compound": "O=P(O)(O)Oc1ccc(C2CCCCC2)c(OP(=O)(O)O)c1", "note": "[Compound 3, 1,3-bisphosphonooxy-4-cyclohexylbenzene]", "values": [{"measurement": "Melanin Amount Ratio (%)", "setting": "Mouse B16 melanoma cells [1]; [17]", "result": 48, "unit": "%"}, {"measurement": "Melanin Amount Ratio (%)", "setting": "Mouse B16 melanoma cells [1]; [18]", "result": 20, "unit": "%"}, {"measurement": "Melanin Amount Ratio (%)", "setting": "Mouse B16 melanoma cells [1]; [19]", "result": 15, "unit": "%"}, {"measurement": "Cell Count (%)", "setting": "Mouse B16 melanoma cells [2]; [17]", "result": 102, "unit": "%"}, {"measurement": "Cell Count (%)", "setting": "Mouse B16 melanoma cells [2]; [18]", "result": 105, "unit": "%"}, {"measurement": "Cell Count (%)", "setting": "Mouse B16 melanoma cells [2]; [19]", "result": 101, "unit": "%"}]}
